Measured values reported in US20150031102A1, “METHODS AND COMPOSITIONS FOR ENHANCED PRODUCTION OF BUTANOL BY CLOSTRIDIA” (Butrolix LLC, priority 2012, published 2015).

Tested on: Clostridium acetobutylicum strain ATCC 824
Assay: Sequential batch transfer in 24-well culture plates (butanol, residual glucose, butanol yield and productivity)
Assay type: cell-based
Conditions: after 96 hours of culture; for Residual glucose concentration: initial glucose 60 g/L
Protocol: Each well contained 1.5 mL of growth medium. Peptide was added to each well at the indicated concentration (0, 25, 50, and 100 nM). Every 24 hours fresh medium and peptide treatment were added to a new column of wells then 1.5 μL of the previous day culture was transferred to the new well. Wells were harvested for glucose and butanol analysis after 96 hours of growth. Transfers 1, 4, 7, 10, 13, 16, […].
Briefly, Clostridium spores were germinated in a suitable growth medium for 18-24 hours then […] was transferred to 1.5 mL of fresh medium in each of four wells on a 24-well culture plate. Three of the wells had been treated with 25 nM, 50 nM and 100 nM of peptide, respectively while the fourth well was untreated. Thereafter, every 24 hours […] of each subculture was transferred to 1.5 mL of fresh medium that contained the same peptide treatment or no treatment. Transfers of successive subcultures were done for 24 days, and each subculture was grown for 96 hours before being harvested. Culture supernatants were recovered following centrifugation and were analyzed for butanol and residual glucose concentrations. Determination of optimum peptide treatment levels was based on a graphical comparison of the concentration of butanol in each of the four culture wells for sequential transfers 1, 4, 7, 10, 13, 16, 19, 22 and 24.
Clostridium acetobutylicum strain ATCC 824 was used in all experiments and the growth medium used for sequential batch transfer, time course, and continuous culture experiments contained yeast extract, casamino acids, L-cysteine, L-asparagine, phosphate buffer, trace minerals, and 6% glucose. What are believed to be quorum-sensing peptides that were used in the experiments were chemically synthesized peptides SEQ ID NO: 143 (amino acid sequence: SYPGWSW) and SEQ ID NO: 144 (amino acid sequence: ILILISG). Routine growth of the bacteria as well as the sequential batch and time course experiments were conducted in a Form a Scientific Model 1029 anaerobic gas chamber at 32° C. Continuous cultures were performed at 32° C. using duplicate New Brunswick Scientific BioFlo 3000 apparati with a dilution rate of 0.01 volume per hour, 75 rpm agitation, and nitrogen gas sparging. Optical density of culture samples was measured at 600 nm in a Beckman DU 600 series spectrophotometer and glucose was analyzed using a YSI Model 2700 Select Biochemistry Analyzer with internal glucose calibration. Butanol concentrations were determined by measuring experimental and standard samples using a Varian Saturn 3 Gas Chromatograph/Mass Spectrometer and calculating butanol concentrations using standard curves.
(§1) Sequential batch transfer experiments were carried out in 24-well culture plates that contained 1.5 mL of medium per well. Peptide was added to each well at the indicated concentrations of 0 nM (control), 25 nM, 50 nM, or 100 nM. Every 24 hours, fresh medium and peptide treatments were added to a new column of wells. Then, 1.5 uL of the previous day culture was transferred to the new well. Wells were harvested for glucose and butanol analysis after 96 hours of growth; transfers 1, 4, 7, 10, 13, 16, 19, 22, and 24 were analyzed. Two representative experiments are shown in Tables 30 and 31 and FIGS. 14 and 15.
as §1, with “32” for “30”, “33” for “31”, “16” for “14”, “17.” for “15.”

[1] = 25 nM peptide, transfer 1, Expt. 1
[2] = 25 nM peptide, transfer 4, Expt. 1
[3] = 25 nM peptide, transfer 7, Expt. 1
[4] = 25 nM peptide, transfer 10, Expt. 1
[5] = 25 nM peptide, transfer 13, Expt. 1
[6] = 25 nM peptide, transfer 16, Expt. 1
[7] = 25 nM peptide, transfer 19, Expt. 1
[8] = 25 nM peptide, transfer 22, Expt. 1
[9] = 25 nM peptide, transfer 24, Expt. 1
[10] = 50 nM peptide, transfer 1, Expt. 1
[11] = 50 nM peptide, transfer 4, Expt. 1
[12] = 50 nM peptide, transfer 7, Expt. 1
[13] = 50 nM peptide, transfer 10, Expt. 1
[14] = 50 nM peptide, transfer 13, Expt. 1
[15] = 50 nM peptide, transfer 16, Expt. 1

## ILILISG (Derived from Clostridium acetobutylicum SEQ ID NO: 110) [peptide SEQ ID NO: 144]
[1]
  Butanol concentration: 1.93 g/L
  Butanol productivity: 0.02 g butanol/L-h
  Butanol yield: 0.03 g butanol/g/glucose
  Residual glucose concentration: 43.3 g/L
25 nM peptide, transfer 1, Expt. 2 (repeat), Table 58
  Butanol concentration: 1.25 g/L
25 nM peptide, transfer 1, Expt. 2 (repeat), Table 45
  Residual glucose concentration: 48.7 g/L
[2]
  Butanol concentration: 10.01 g/L
  Butanol productivity: 0.10 g butanol/L-h
  Butanol yield: 0.17 g butanol/g/glucose
  Residual glucose concentration: 0.0 g/L
25 nM peptide, transfer 4, Expt. 2 (repeat), Table 58
  Butanol concentration: 2.36 g/L
25 nM peptide, transfer 4, Expt. 2 (repeat), Table 45
  Residual glucose concentration: 43.6 g/L
[3]
  Butanol concentration: 7.82 g/L
  Butanol productivity: 0.08 g butanol/L-h
  Butanol yield: 0.13 g butanol/g/glucose
  Residual glucose concentration: .01 g/L
25 nM peptide, transfer 7, Expt. 2 (repeat), Table 58
  Butanol concentration: 2.26 g/L
25 nM peptide, transfer 7, Expt. 2 (repeat), Table 45
  Residual glucose concentration: 46.5 g/L
[4]
  Butanol concentration: 11.88 g/L
  Butanol productivity: 0.12 g butanol/L-h
  Butanol yield: 0.20 g butanol/g/glucose
  Residual glucose concentration: 0.1 g/L
25 nM peptide, transfer 10, Expt. 2 (repeat), Table 58
  Butanol concentration: 3.56 g/L
25 nM peptide, transfer 10, Expt. 2 (repeat), Table 45
  Residual glucose concentration: 42.5 g/L
[5]
  Butanol concentration: 7.56 g/L
  Butanol productivity: 0.08 g butanol/L-h
  Butanol yield: 0.13 g butanol/g/glucose
  Residual glucose concentration: 0.1 g/L
25 nM peptide, transfer 13, Expt. 2 (repeat), Table 58
  Butanol concentration: 9.51 g/L
25 nM peptide, transfer 13, Expt. 2 (repeat), Table 45
  Residual glucose concentration: 0.9 g/L
[6]
  Butanol concentration: 8.33 g/L
  Butanol productivity: 0.09 g butanol/L-h
  Butanol yield: 0.14 g butanol/g/glucose
  Residual glucose concentration: 0.0 g/L
25 nM peptide, transfer 16, Expt. 2 (repeat), Table 58
  Butanol concentration: 12.57 g/L
25 nM peptide, transfer 16, Expt. 2 (repeat), Table 45
  Residual glucose concentration: 0.1 g/L
[7]
  Butanol concentration: 7.52 g/L
  Butanol productivity: 0.08 g butanol/L-h
  Butanol yield: 0.12 g butanol/g/glucose
  Residual glucose concentration: 0.1 g/L
25 nM peptide, transfer 19, Expt. 2 (repeat), Table 58
  Butanol concentration: 4.42 g/L
25 nM peptide, transfer 19, Expt. 2 (repeat), Table 45
  Residual glucose concentration: 0.1 g/L
[8]
  Butanol concentration: 13.47 g/L
  Butanol productivity: 0.14 g butanol/L-h
  Butanol yield: 0.22 g butanol/g/glucose
  Residual glucose concentration: 9.9 g/L
25 nM peptide, transfer 22, Expt. 2 (repeat), Table 58
  Butanol concentration: 3.65 g/L
25 nM peptide, transfer 22, Expt. 2 (repeat), Table 45
  Residual glucose concentration: 0.1 g/L
[9]
  Butanol concentration: 7.27 g/L
  Butanol productivity: 0.08 g butanol/L-h
  Butanol yield: 0.12 g butanol/g/glucose
  Residual glucose concentration: 0.0 g/L
25 nM peptide, transfer 24, Expt. 2 (repeat), Table 58
  Butanol concentration: 2.75 g/L
25 nM peptide, transfer 24, Expt. 2 (repeat), Table 45
  Residual glucose concentration: 0.1 g/L
[10]
  Butanol concentration: 1.90 g/L
  Butanol productivity: 0.02 g butanol/L-h
  Butanol yield: 0.03 g butanol/g/glucose
  Residual glucose concentration: 41.8 g/L
50 nM peptide, transfer 1, Expt. 2 (repeat), Table 58
  Butanol concentration: 1.29 g/L
50 nM peptide, transfer 1, Expt. 2 (repeat), Table 45
  Residual glucose concentration: 47.4 g/L
[11]
  Butanol concentration: 9.57 g/L
  Butanol productivity: 0.10 g butanol/L-h
  Butanol yield: 0.16 g butanol/g/glucose
  Residual glucose concentration: 0.0 g/L
50 nM peptide, transfer 4, Expt. 2 (repeat), Table 58
  Butanol concentration: 2.24 g/L
50 nM peptide, transfer 4, Expt. 2 (repeat), Table 45
  Residual glucose concentration: 44.9 g/L
[12]
  Butanol concentration: 7.58 g/L
  Butanol productivity: 0.08 g butanol/L-h
  Butanol yield: 0.13 g butanol/g/glucose
  Residual glucose concentration: 0.0 g/L
50 nM peptide, transfer 7, Expt. 2 (repeat), Table 58
  Butanol concentration: 1.98 g/L
50 nM peptide, transfer 7, Expt. 2 (repeat), Table 45
  Residual glucose concentration: 49.8 g/L
[13]
  Butanol concentration: 11.09 g/L
  Butanol productivity: 0.12 g butanol/L-h
  Butanol yield: 0.18 g butanol/g/glucose
  Residual glucose concentration: 0.0 g/L
50 nM peptide, transfer 10, Expt. 2 (repeat), Table 58
  Butanol concentration: 2.26 g/L
50 nM peptide, transfer 10, Expt. 2 (repeat), Table 45
  Residual glucose concentration: 48.0 g/L
[14]
  Butanol concentration: 7.90 g/L
  Butanol productivity: 0.08 g butanol/L-h
  Butanol yield: 0.13 g butanol/g/glucose
  Residual glucose concentration: 0.1 g/L
50 nM peptide, transfer 13, Expt. 2 (repeat), Table 58
  Butanol concentration: 4.58 g/L
50 nM peptide, transfer 13, Expt. 2 (repeat), Table 45
  Residual glucose concentration: 49.1 g/L
[15]
  Butanol concentration: 9.34 g/L
  Butanol productivity: 0.10 g butanol/L-h
  Butanol yield: 0.15 g butanol/g/glucose
  Residual glucose concentration: 0.0 g/L
50 nM peptide, transfer 16, Expt. 2 (repeat), Table 58
  Butanol concentration: 3.34 g/L
50 nM peptide, transfer 16, Expt. 2 (repeat), Table 45
  Residual glucose concentration: 47.7 g/L
